The subject of assay [1] is secondary alcohol dehydrogenase enzyme. Nature of the assay: Substrate and cofactor specificity of the purified enzyme. The class given is biochemical, Pseudomonas fluorescens NRRL B-1244. The settings on record: for oxidation rate / activity as substrate (in words): purified enzyme, NAD^+. Here is the method: The rate of dehydrogenation of the primary and secondary alcohols tested was measured with a fluorescence spectrophotometer by following the formation of reduced NAD^+ (excitation at 340 nm, emission at 460 nm). […] The reaction was initiated by the addition of the substrate alcohol. The product aldehydes or ketones were identified by retention time comparisons and cochromatography with authentic standards using flame ionization gas chromatography (a stainless steel column was maintained isothermally at 110 °C). Specific oxidation rates were expressed as nmoles of product formed per min. per mg of protein.
The purified enzyme from step 5 of Example 2 was used in the procedure of Example 1 to oxidize primary and secondary alcohols, diols and aldehydes. The specificity of the dehydrogenase for the substrates is expressed as nmoles of product formed per min. per 85 µg of protein and as a percentage relative to the oxidation rate of 2-propanol (designated as 100% oxidation rate) in Table V.

Assay [2] shares this test system. Nature of the assay: Inhibition of secondary alcohol dehydrogenase activity (oxidation of 2-propanol in the presence of potential inhibitors). It counts as biochemical, Pseudomonas fluorescens NRRL B-1244. On the procedure: The activity of the NAD^+-linked secondary alcohol dehydrogenase in each fraction was measured using a fluorescence spectrophotometer by monitoring the formation of reduced NAD^+ (excitation at 340 nm, emission at 460 nm). The assay system (3 ml) contained 150 µmole sodium phosphate buffer pH 7.0, 1.0 µmole NAD^+, a given amount of enzyme fraction, and 20 µ cmole 2-propanol substrate. […] Protein concentrations in each fraction were determined by the method of O.H. Lowry et al., J. Biol. Chem., 193, 255 (1951).
The oxidation of 2-propanol by the purified extract of secondary alcohol dehydrogenase enzyme was conducted in the presence of a lmM concentration of one of the metal chelating agents and thio-reagents listed in Table VI.

Assay [3] deals with secondary alcohol dehydrogenase.
In assay [4] the test system is secondary alcohol dehydrogenase enzyme. It counts as biochemical, Pseudomonas fluorescens NRRL B-1244. Here is the method: The effect of NAD^+ and 2-propanol concentrations on the enzyme activity was studied at 25 °C in 0.05 M sodium phosphate buffer pH 7.0. 2-Propanol was kept at a saturated level (6.6 mM) for the determination of the Km value for NAD^+; and NAD^+ was maintained at a saturated level (lmM) for determining the Km value for 2-propanol.

The mark [5] stands for this setting: 1 mM inhibitor, oxidation of 2-propanol by purified enzyme.

“Also recorded” adds a separate entry of the source. Like-named read-outs stand apart in the source and are kept apart here.

With `CC(O)CCO` (stereo not shown) [1,3-butanediol], the “oxidation rate / activity as substrate (in words)” value (“oxidation rate / activity” below) in assay [1] was “highest activity”. What is called % Inhibition is the share of the control response that was lost under treatment. For `c1cnc2c(c1)ccc1cccnc12` [1,10-phenanthroline], the “% Inhibition” value in assay [2] (setting [5]) stood at 100%. In the case of `CCC(C)O` (stereo not shown) [2-butanol], the “% of original activity” value in assay [3] (0.9 M 2-butanol solution) turned out to be 40%. In addition, in assay [3] (1.1 M 2-butanol solution), the “% of its activity” value is given as 30%. Moreover, the “oxidation rate / activity” value in assay [1] is on record as “highest oxidation rate; also recorded: highest activity”. For orientation: Km means the concentration of substrate that gives half-maximal velocity. With `CC(C)O` [2-propanol], the “oxidation rate / activity” value in assay [1] is on record as “highest activity”. In assay [4] (pH 7, read-out: Km value for 2-propanol), the Km worked out at 85 µM. On to `O=C(O)c1cc(SSc2ccc([N+](=O)[O-])c(C(=O)O)c2)ccc1[N+](=O)[O-]` [5,5'-dithiobis-(2-nitrobenzoate)], for which the “inhibition of enzyme activity (in words)” value in assay [2] is “inhibited”. Besides, the “% Inhibition” value in assay [2] (setting [5]) is recorded as 100%. As to `O=[N+]([O-])c1ccc(O)c2ncccc12` [5-nitro-8-hydroxyquinoline], in assay [2], the “inhibition of enzyme activity (in words)” value was “inhibited”. Further, the “% Inhibition” value in assay [2] (setting [5]) was found to be 100%. Take `[Cu+2]` [Cu^2+]: in assay [2] (setting [5]), the “% Inhibition” value was found to be 10%.

With `[Hg+2]` [Hg^2+], the “% Inhibition” value in assay [2] (setting [5]) came to 100%. For `CCN1C(=O)C=CC1=O` [N-ethylmaleimide], the “% Inhibition” value in assay [2] (setting [5]) is recorded as 33%. `NC(=O)c1ccc[n+]([C@@H]2O[C@H](COP(=O)([O-])OP(=O)(O)OC[C@H]3O[C@@H](n4cnc5c(N)ncnc54)[C@H](OP(=O)(O)O)[C@@H]3O)[C@@H](O)[C@H]2O)c1` [NADP^+]: in assay [1] (NADP^+ as cofactor), the “oxidation rate with NADP^+ as cofactor relative to NAD^+” value is listed as “about 50%”. As for `NC(=O)c1ccc[n+]([C@@H]2O[C@H](COP(=O)([O-])OP(=O)(O)OC[C@H]3O[C@@H](n4cnc5c(N)ncnc54)[C@H](O)[C@@H]3O)[C@@H](O)[C@H]2O)c1` [NAD^+, nicotinamide adenine dinucleotide], the Km in assay [4] (25°C, 0.05 M sodium phosphate buffer pH 7.0, 2-propanol saturated (6.6 mM), read-out: Km value for NAD^+) came to 8.2 µM. Take `CC(N)=O` [acetamide]: in assay [2] (setting [5]), the “% Inhibition” value was found to be 0%. As to `CC(C)=O` [acetone], in assay [1], the “rate of reduction of acetone to propanol relative to the forward reaction” value is “about 20%”. Regarding `O=C(O)CN(CCN(CC(=O)O)CC(=O)O)CC(=O)O` [ethylenediamine tetraacetic acid (EDTA), ethylenediamine tetraacetic acid], the “% Inhibition” value in assay [2] (setting [5]) turned out to be 0%. For `c1c[nH]cn1` [imidazole], the “% Inhibition” value in assay [2] (setting [5]) stood at 0%.

For the compound `O=C(O)CI` [iodoacetic acid], in assay [2], the “% Inhibition” value is 0%. For the compound `O=C(O)c1cc[c]([Hg+])cc1.[OH-]` [p-hydroxymercuribenzoate], the “inhibition of enzyme activity (in words)” value in assay [2] was “inhibited”. Besides, the “% Inhibition” value in assay [2] (setting [5]) is recorded as 100%.

`NNC(N)=S` [thiosemicarbazide]: the “% Inhibition” value in assay [2] (setting [5]) is given as 44%. In the case of `c1ccc(-c2ccccn2)nc1` [α,α'-dipyridyl], the “% Inhibition” value in assay [2] (setting [5]) was 40%.

The values above are taken from patent publication EP0098136A2, “Primary and secondary alcohol dehydrogenase enzymes and the use thereof” (priority 1982, dated 1984).
